Assay results: the CheMixHub drug solubility set

Assay: xn = mol fraction of the nth substance listed, in the solute-free solvent

OCCN(CCO)c1nc(N2CCCCC2)c2nc(N(CCO)CCO)nc(N3CCCCC3)c2n1 + CCO + O
solubility (g/100 g solution)
Conditions	293.15 K	298.15 K	303.15 K	308.15 K	313.15 K	318.15 K	323.15 K	328.15 K
x2 = 0.3	1.64	1.81	2.52	3.79	5.33	8.14	12.5	18
x2 = 0.4	2.59	3.74	5.59	7.99	10.8	16	22.2	29.9
x2 = 0.5	4.37	6.13	8.44	11.4	15.2	20.7	28.1	36.2
x2 = 0.6	5.48	7.13	9.58	13.1	16.6	22.2	29.3	37
x2 = 0.7	5.8	7.49	9.93	13.1	16.7	21.9	28.4	35.8
x2 = 0.8	5.06	6.52	8.76	11.6	14.9	19.3	25.6	32.2
x2 = 0.9	4.28	5.36	7.23	9.43	11.7	15.1	20.7	26.7

CCC(C)n1ncn(-c2ccc(N3CCN(c4ccc(OCC5COC(Cn6cncn6)(c6ccc(Cl)cc6Cl)O5)cc4)CC3)cc2)c1=O (centres undefined) + ClCCl + CCCCO
solubility (g/100 g solution)
Conditions	x2 = 0.08928	x2 = 0.1807	x2 = 0.2744	x2 = 0.3704	x2 = 0.4687	x2 = 0.5696	x2 = 0.6731	x2 = 0.7792	x2 = 0.8882
288.15 K	0.0509	0.143	0.594	1.83	4.18	9.32	14.8	19.8	22
293.15 K	0.0634	0.189	0.775	2.27	5.04	10.4	16	20.9	23.1
298.15 K	0.078	0.249	1	2.81	5.97	11.6	17	22.1	24.2
303.15 K	0.0948	0.323	1.28	3.4	7.13	12.8	18.2	23.1	25.3
308.15 K	0.115	0.412	1.64	4.11	8.37	14	19.3	24.2	26.4

CCC(C)n1ncn(-c2ccc(N3CCN(c4ccc(OCC5COC(Cn6cncn6)(c6ccc(Cl)cc6Cl)O5)cc4)CC3)cc2)c1=O (centres undefined) + ClC(Cl)Cl + CCCO
solubility (g/100 g solution)
Conditions	x2 = 0.05356	x2 = 0.113	x2 = 0.1792	x2 = 0.2535	x2 = 0.3375	x2 = 0.4331	x2 = 0.5431	x2 = 0.6708	x2 = 0.8209
288.15 K	0.0558	0.128	0.28	0.831	3.16	6.95	12.2	17.6	24.2
293.15 K	0.0691	0.153	0.347	1.04	3.51	7.71	13.2	18.8	25.1
298.15 K	0.0837	0.183	0.426	1.28	3.9	8.57	14.2	19.9	26.1
303.15 K	0.102	0.216	0.523	1.57	4.29	9.48	15.3	21.1	26.9
308.15 K	0.122	0.255	0.63	1.89	4.73	10.4	16.3	22.3	27.8

CN1CCN(C2=Nc3cc(Cl)ccc3Nc3ccccc32)CC1 + CC#N + O
solubility (g/100 g solution)
Conditions	x2 = 0.04651	x2 = 0.0989	x2 = 0.1583	x2 = 0.2264	x2 = 0.3051	x2 = 0.397	x2 = 0.506	x2 = 0.6372	x2 = 0.798
278.15 K	0.00519	0.0208	0.0473	0.113	0.207	0.366	0.609	0.903	1.23
283.15 K	0.00691	0.0265	0.0589	0.138	0.248	0.431	0.707	1.04	1.39
288.15 K	0.00905	0.034	0.0735	0.168	0.296	0.507	0.817	1.18	1.55
293.15 K	0.0119	0.0432	0.0905	0.2	0.347	0.589	0.938	1.34	1.73
298.15 K	0.0151	0.0532	0.111	0.238	0.41	0.682	1.08	1.5	1.95
303.15 K	0.0193	0.0662	0.135	0.283	0.481	0.794	1.22	1.7	2.16
308.15 K	0.0247	0.0831	0.164	0.336	0.558	0.91	1.39	1.92	2.39
313.15 K	0.0308	0.101	0.197	0.398	0.642	1.05	1.56	2.11	2.64
318.15 K	0.0384	0.123	0.233	0.465	0.746	1.19	1.75	2.37	2.91
323.15 K	0.0473	0.15	0.281	0.542	0.855	1.35	1.96	2.63	3.2
328.15 K	0.059	0.178	0.335	0.625	0.985	1.53	2.18	2.9	3.49

Nc1cccc(S(=O)(=O)c2cccc(N)c2)c1 + CCO + O
solubility (g/100 g solution)
Conditions	283.15 K	288.15 K	293.15 K	298.15 K	303.15 K	308.15 K	313.15 K	318.15 K	323.15 K	328.15 K
x2 = 0.04165	0.0709	0.0964	0.128	0.168	0.215	0.284	0.356	0.459	0.577	0.72
x2 = 0.08908	0.129	0.173	0.226	0.3	0.383	0.491	0.619	0.788	0.987	1.23
x2 = 0.1436	0.209	0.277	0.357	0.462	0.591	0.744	0.941	1.16	1.45	1.78
x2 = 0.2068	0.318	0.41	0.509	0.646	0.822	1.02	1.25	1.51	1.84	2.24
x2 = 0.2812	0.455	0.561	0.706	0.874	1.07	1.3	1.56	1.89	2.26	2.69
x2 = 0.3698	0.604	0.732	0.907	1.11	1.34	1.64	1.92	2.33	2.7	3.21
x2 = 0.4772	0.76	0.93	1.14	1.34	1.62	1.92	2.28	2.69	3.15	3.7
x2 = 0.6101	0.914	1.09	1.31	1.55	1.88	2.19	2.57	3.03	3.51	4.06
x2 = 0.7788	1.1	1.29	1.52	1.79	2.08	2.43	2.81	3.25	3.75	4.28

CN1CCN(C2=Nc3cc(Cl)ccc3Nc3ccccc32)CC1 + CC(C)=O + Cc1ccccc1
solubility (g/100 g solution)
Conditions	x2 = 0.1503	x2 = 0.2841	x2 = 0.4047	x2 = 0.5141	x2 = 0.6136	x2 = 0.7038	x2 = 0.7876	x2 = 0.8642	x2 = 0.9343
293.15 K	4.2	5.72	6.98	7.87	8.37	8.49	8.42	8.02	7.41
298.15 K	4.59	6.06	7.92	8.77	9.44	9.83	9.53	9.03	8.42
303.15 K	5.42	7.16	8.86	9.9	10.6	10.7	9.99	9.78	8.81
308.15 K	6.11	8.41	9.86	10.9	11.9	12.3	11.6	11.3	10.4
313.15 K	7.38	9.81	11.5	12.7	13.4	13.6	13.4	12.9	11.9
318.15 K	8.97	11.4	13.2	14.3	15.4	15.3	15.5	14.8	13.4
